From PubChem BioAssay (NCI)
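The compound was tested at five concentrations on cells cultured in 96-well plates, with a 48-hour exposure period. The concentration for 50% growth inhibition is given as GI50. TGI marks complete inhibition of growth.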

Columns and labels:
Assay in all cases: growth of human tumour cells (NCI), 48 h
786-0 renal = system: 786-0 renal
A498 renal = system: A498 renal
A549 NSCLC = system: A549 NSCLC
ACHN renal = system: ACHN renal
BT-549 breast = system: BT-549 breast
CAKI-1 renal = system: CAKI-1 renal
CCRF-CEM leukemia = system: CCRF-CEM leukemia
DU-145 prostate = system: DU-145 prostate
EKVX NSCLC = system: EKVX NSCLC
HCC-2998 colon = system: HCC-2998 colon
HCT-116 colon = system: HCT-116 colon
HCT-15 colon = system: HCT-15 colon
HL-60(TB) leukemia = system: HL-60(TB) leukemia
HOP-62 NSCLC = system: HOP-62 NSCLC
HOP-92 NSCLC = system: HOP-92 NSCLC
HS 578T breast = system: HS 578T breast
K-562 leukemia = system: K-562 leukemia
LOX IMVI melanoma = system: LOX IMVI melanoma
M14 melanoma = system: M14 melanoma
MALME-3M melanoma = system: MALME-3M melanoma
MDA-MB-231 breast = system: MDA-MB-231 breast
MDA-MB-435 = system: MDA-MB-435
MOLT-4 leukemia = system: MOLT-4 leukemia
NCI-H226 lung = system: NCI-H226 lung
NCI-H23 lung = system: NCI-H23 lung
NCI-H460 lung = system: NCI-H460 lung
NCI/ADR-RES ovarian = system: NCI/ADR-RES ovarian
OVCAR-3 ovarian = system: OVCAR-3 ovarian
OVCAR-4 ovarian = system: OVCAR-4 ovarian
OVCAR-5 ovarian = system: OVCAR-5 ovarian
OVCAR-8 ovarian = system: OVCAR-8 ovarian
PC-3 prostate = system: PC-3 prostate
RPMI-8226 leukemia = system: RPMI-8226 leukemia
RXF 393 renal = system: RXF 393 renal
SF-268 CNS = system: SF-268 CNS
SF-295 CNS = system: SF-295 CNS
SF-539 CNS = system: SF-539 CNS
SK-MEL-2 melanoma = system: SK-MEL-2 melanoma
SK-MEL-28 melanoma = system: SK-MEL-28 melanoma
SK-MEL-5 melanoma = system: SK-MEL-5 melanoma
SK-OV-3 ovarian = system: SK-OV-3 ovarian
SN12C renal = system: SN12C renal
SNB-19 CNS = system: SNB-19 CNS
SNB-75 CNS = system: SNB-75 CNS
SW-620 colon = system: SW-620 colon
T-47D breast = system: T-47D breast
TK-10 renal = system: TK-10 renal
U251 CNS = system: U251 CNS
UACC-257 melanoma = system: UACC-257 melanoma
UACC-62 melanoma = system: UACC-62 melanoma
UO-31 renal = system: UO-31 renal

For CCCCSSC(=S)N(CC)CC, the GI50 (786-0 renal) was > 100 µM, the TGI (786-0 renal) was > 100 µM and the GI50 (A498 renal) was > 100 µM. The TGI (A498 renal) was > 100 µM, the GI50 (A549 NSCLC) was > 100 µM and the TGI (A549 NSCLC) was > 100 µM. For the same compound, the GI50 (ACHN renal) was 46.9 µM, the TGI (ACHN renal) was > 100 µM and the GI50 (BT-549 breast) was 26.1 µM. For the same compound, the TGI (BT-549 breast) was 75.9 µM, the GI50 (CAKI-1 renal) was 18.3 µM and the TGI (CAKI-1 renal) was 54.5 µM. For the same compound, the GI50 (CCRF-CEM leukemia) was 18.4 µM, the TGI (CCRF-CEM leukemia) was > 100 µM and the GI50 (DU-145 prostate) was 53.9 µM. For the same compound, the TGI (DU-145 prostate) was > 100 µM, the GI50 (EKVX NSCLC) was > 100 µM and the TGI (EKVX NSCLC) was > 100 µM. The GI50 (HCC-2998 colon) was > 100 µM, the TGI (HCC-2998 colon) was > 100 µM and the GI50 (HCT-116 colon) was 19 µM. The TGI (HCT-116 colon) was 37 µM, the GI50 (HCT-15 colon) was 73.6 µM and the TGI (HCT-15 colon) was > 100 µM. The GI50 (HL-60(TB) leukemia) was 12.4 µM, the TGI (HL-60(TB) leukemia) was 69.2 µM and the GI50 (HOP-62 NSCLC) was > 100 µM. For the same compound, the TGI (HOP-62 NSCLC) was > 100 µM, the GI50 (HOP-92 NSCLC) was 26.9 µM and the TGI (HOP-92 NSCLC) was > 100 µM. For the same compound, the GI50 (HS 578T breast) was 38.6 µM, the TGI (HS 578T breast) was > 100 µM and the GI50 (K-562 leukemia) was 17.5 µM. The TGI (K-562 leukemia) was 40.1 µM, the GI50 (LOX IMVI melanoma) was 20.6 µM and the TGI (LOX IMVI melanoma) was 48.8 µM. For the same compound, the GI50 (M14 melanoma) was 25.7 µM, the TGI (M14 melanoma) was 87 µM and the GI50 (MALME-3M melanoma) was 32.4 µM. For the same compound, the TGI (MALME-3M melanoma) was > 100 µM, the GI50 (MDA-MB-231 breast) was 32.4 µM and the TGI (MDA-MB-231 breast) was > 100 µM. For the same compound, the GI50 (MDA-MB-435) was 33.9 µM, the TGI (MDA-MB-435) was > 100 µM and the GI50 (MOLT-4 leukemia) was 20.2 µM. For the same compound, the TGI (MOLT-4 leukemia) was 54.9 µM, the GI50 (NCI-H226 lung) was > 100 µM and the TGI (NCI-H226 lung) was > 100 µM. The GI50 (NCI-H23 lung) was > 100 µM, the TGI (NCI-H23 lung) was > 100 µM and the GI50 (NCI-H460 lung) was 25.4 µM. For the same compound, the TGI (NCI-H460 lung) was > 100 µM, the GI50 (NCI/ADR-RES ovarian) was 34.3 µM and the TGI (NCI/ADR-RES ovarian) was > 100 µM. For the same compound, the GI50 (OVCAR-3 ovarian) was 20.4 µM, the TGI (OVCAR-3 ovarian) was 42.6 µM and the GI50 (OVCAR-4 ovarian) was 16.9 µM. The TGI (OVCAR-4 ovarian) was 32.3 µM, the GI50 (OVCAR-5 ovarian) was 36.4 µM and the TGI (OVCAR-5 ovarian) was > 100 µM. For the same compound, the GI50 (OVCAR-8 ovarian) was 34.3 µM, the TGI (OVCAR-8 ovarian) was > 100 µM and the GI50 (PC-3 prostate) was 34.3 µM. The TGI (PC-3 prostate) was > 100 µM, the GI50 (RPMI-8226 leukemia) was 17.9 µM and the TGI (RPMI-8226 leukemia) was 40.1 µM. For the same compound, the GI50 (RXF 393 renal) was 23.3 µM, the TGI (RXF 393 renal) was 49.4 µM and the GI50 (SF-268 CNS) was 41.7 µM. For the same compound, the TGI (SF-268 CNS) was > 100 µM, the GI50 (SF-295 CNS) was 37.1 µM and the TGI (SF-295 CNS) was > 100 µM. For the same compound, the GI50 (SF-539 CNS) was 21.1 µM, the TGI (SF-539 CNS) was 56.5 µM and the GI50 (SK-MEL-2 melanoma) was 57.7 µM. The TGI (SK-MEL-2 melanoma) was > 100 µM, the GI50 (SK-MEL-28 melanoma) was 23.4 µM and the TGI (SK-MEL-28 melanoma) was 78.3 µM. The GI50 (SK-MEL-5 melanoma) was 21 µM, the TGI (SK-MEL-5 melanoma) was > 100 µM and the GI50 (SK-OV-3 ovarian) was > 100 µM. The TGI (SK-OV-3 ovarian) was > 100 µM, the GI50 (SN12C renal) was 35.7 µM and the TGI (SN12C renal) was > 100 µM. For the same compound, the GI50 (SNB-19 CNS) was > 100 µM, the TGI (SNB-19 CNS) was > 100 µM and the GI50 (SNB-75 CNS) was 55.5 µM. The TGI (SNB-75 CNS) was > 100 µM, the GI50 (SW-620 colon) was 16.7 µM and the TGI (SW-620 colon) was 32.9 µM. The GI50 (T-47D breast) was 90.5 µM, the TGI (T-47D breast) was > 100 µM and the GI50 (TK-10 renal) was 41.2 µM. The TGI (TK-10 renal) was > 100 µM, the GI50 (U251 CNS) was 28.8 µM and the TGI (U251 CNS) was > 100 µM. The GI50 (UACC-257 melanoma) was 79.5 µM, the TGI (UACC-257 melanoma) was > 100 µM and the GI50 (UACC-62 melanoma) was 34.2 µM. For the same compound, the TGI (UACC-62 melanoma) was > 100 µM, the GI50 (UO-31 renal) was 20.9 µM and the TGI (UO-31 renal) was 47.6 µM.
